Measured values from ChEMBL document CHEMBL2216754, “Discovery of Imidazoquinolines with Toll-Like Receptor 7/8 Independent Cytokine Induction” (ACS Med Chem Lett, 2012).

Tests used:
[1] = Immunomodulatory activity in C57BL/6 mouse BMDC assessed as TNFalpha production at 30 uM after 3 days by FACS flow cytometric analysis (reference value: 91.3 +/- 34.5 pg/mL); assay type: functional
[2] = Immunomodulatory activity in C57BL/6 mouse BMDC assessed as IL-1beta production at 30 uM after 3 days by FACS flow cytometric analysis (reference value: 26.2 +/- 3.7 pg/mL); assay type: functional
[3] = Immunomodulatory activity in C57BL/6 mouse BMDC assessed as IL-12p40 production at 30 uM after 3 days by FACS flow cytometric analysis (reference value: 260.6 +/- 11.9 pg/mL); assay type: functional
[4] = Immunomodulatory activity in C57BL/6 mouse BMDC assessed as IL-10 production at 30 uM after 3 days by FACS flow cytometric analysis (reference value: 16.2 +/- 4.7 pg/mL); assay type: functional
[5] = target: T1, Toll-like receptor 7 (Homo sapiens, UniProt Q9NYK1); assay: Agonist activity at human TLR7 transfected in HEK cells assessed as NFkappaB induction after 24 hrs by specific secreted alkaline phosphatase gene assay; assay type: functional, cell-based, HEK293
T1 sequence (Q9NYK1 whole entry): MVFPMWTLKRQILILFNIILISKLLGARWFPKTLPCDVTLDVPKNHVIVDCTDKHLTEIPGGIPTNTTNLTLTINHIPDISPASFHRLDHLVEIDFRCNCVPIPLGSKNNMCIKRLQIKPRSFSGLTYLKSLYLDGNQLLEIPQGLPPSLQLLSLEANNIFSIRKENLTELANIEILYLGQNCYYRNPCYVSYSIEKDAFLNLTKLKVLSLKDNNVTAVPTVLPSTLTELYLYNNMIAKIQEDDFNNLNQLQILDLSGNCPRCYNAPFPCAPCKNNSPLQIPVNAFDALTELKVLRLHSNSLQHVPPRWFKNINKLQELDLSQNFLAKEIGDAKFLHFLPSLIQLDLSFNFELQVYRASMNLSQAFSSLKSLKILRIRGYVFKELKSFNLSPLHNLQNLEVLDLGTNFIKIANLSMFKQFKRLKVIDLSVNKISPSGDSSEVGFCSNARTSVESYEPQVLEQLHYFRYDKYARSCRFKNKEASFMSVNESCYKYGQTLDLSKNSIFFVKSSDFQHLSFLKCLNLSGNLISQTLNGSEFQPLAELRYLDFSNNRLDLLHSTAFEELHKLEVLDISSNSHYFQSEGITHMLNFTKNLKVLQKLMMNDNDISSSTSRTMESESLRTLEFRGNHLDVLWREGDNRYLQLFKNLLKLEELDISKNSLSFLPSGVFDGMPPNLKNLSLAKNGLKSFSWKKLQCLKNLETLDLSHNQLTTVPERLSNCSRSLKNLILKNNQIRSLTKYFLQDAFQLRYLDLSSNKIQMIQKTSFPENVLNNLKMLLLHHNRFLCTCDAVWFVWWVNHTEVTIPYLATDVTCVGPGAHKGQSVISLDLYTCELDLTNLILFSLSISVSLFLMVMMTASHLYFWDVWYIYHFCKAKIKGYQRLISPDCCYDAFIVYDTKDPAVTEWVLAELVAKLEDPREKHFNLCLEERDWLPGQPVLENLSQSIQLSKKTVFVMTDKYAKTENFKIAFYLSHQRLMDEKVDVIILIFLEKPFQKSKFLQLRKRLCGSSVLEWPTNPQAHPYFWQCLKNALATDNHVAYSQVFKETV

[6] = target: T2, Toll-like receptor 8 (Homo sapiens, UniProt Q9NR97); assay: Agonist activity at human TLR8 transfected in HEK cells assessed as NFkappaB induction after 24 hrs by specific secreted alkaline phosphatase gene assay; assay type: functional, cell-based, HEK293
T2 sequence (Q9NR97 whole entry): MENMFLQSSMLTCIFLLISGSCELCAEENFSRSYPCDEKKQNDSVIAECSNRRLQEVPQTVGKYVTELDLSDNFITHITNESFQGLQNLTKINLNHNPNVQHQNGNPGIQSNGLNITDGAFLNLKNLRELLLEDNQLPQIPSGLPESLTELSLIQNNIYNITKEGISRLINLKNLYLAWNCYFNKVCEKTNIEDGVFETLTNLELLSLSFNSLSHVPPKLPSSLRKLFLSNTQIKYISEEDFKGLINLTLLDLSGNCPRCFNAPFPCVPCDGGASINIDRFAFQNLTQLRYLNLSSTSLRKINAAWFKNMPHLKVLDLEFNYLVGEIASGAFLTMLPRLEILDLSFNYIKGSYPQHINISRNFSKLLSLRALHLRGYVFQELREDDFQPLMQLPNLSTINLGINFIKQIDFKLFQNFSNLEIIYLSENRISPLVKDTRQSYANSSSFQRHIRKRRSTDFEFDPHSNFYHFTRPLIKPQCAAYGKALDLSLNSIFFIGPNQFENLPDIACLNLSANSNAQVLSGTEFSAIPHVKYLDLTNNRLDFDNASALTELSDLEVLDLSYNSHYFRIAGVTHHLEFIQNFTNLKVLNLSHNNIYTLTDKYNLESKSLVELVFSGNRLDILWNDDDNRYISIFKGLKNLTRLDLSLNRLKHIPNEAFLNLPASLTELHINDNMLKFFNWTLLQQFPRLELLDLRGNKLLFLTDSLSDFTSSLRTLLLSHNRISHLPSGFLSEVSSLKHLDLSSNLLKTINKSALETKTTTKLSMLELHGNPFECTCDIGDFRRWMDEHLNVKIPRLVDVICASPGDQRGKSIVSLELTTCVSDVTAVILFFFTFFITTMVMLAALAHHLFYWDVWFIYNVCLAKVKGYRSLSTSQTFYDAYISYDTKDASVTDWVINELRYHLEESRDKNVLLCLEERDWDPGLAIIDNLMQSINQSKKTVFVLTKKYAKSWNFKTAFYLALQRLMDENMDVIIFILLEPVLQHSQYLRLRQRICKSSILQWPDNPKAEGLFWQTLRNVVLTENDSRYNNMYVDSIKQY

[7] = Immunomodulatory activity in C57BL/6 mouse BMDC assessed as TNFalpha production at 30 uM after 3 days by FACS flow cytometric analysis relative to imiquimod; assay type: functional
[8] = Immunomodulatory activity in C57BL/6 mouse BMDC assessed as IL-12p40 production at 30 uM after 3 days by FACS flow cytometric analysis relative to imiquimod; assay type: functional

| EC50 [5] | EC50 [6] | Compound | Activity [1] | Activity [2] | Activity [3] | Activity [4] | fold change (FC) [7] | fold change (FC) [8] |
| --- | --- | --- | --- | --- | --- | --- | --- | --- |
| 1.2 µM | 41.3 µM | CCCCc1nc2c(N)nc3cc(C(=O)OC)ccc3c2n1CC(C)(C)O | 1353 pg/mL | 893 pg/mL | 1286 pg/mL | 110 pg/mL |  |  |
| 95 µM | > 270 µM | CC(C)(O)Cn1cnc2c(N)nc3ccccc3c21 | 2041 pg/mL | 61 pg/mL | 839 pg/mL | 60 pg/mL |  |  |
| 12.1 µM | > 270 µM | CC(C)Cn1cnc2c(N)nc3ccccc3c21 [IMIQUIMOD] | 593 pg/mL | 35 pg/mL | 889 pg/mL | 33 pg/mL |  |  |
| > 270 µM | > 270 µM | COC(=O)c1ccc2c(c1)nc(N)c1ncn(CC(C)(C)O)c12 | 1451 pg/mL | 1144 pg/mL | 1773 pg/mL | 94 pg/mL | >2 | >2 |
|  |  | CCOCc1nc2c(N)nc3ccccc3c2n1CC(C)(C)O [RESIQUIMOD] | 2134 pg/mL | 38 pg/mL | 1491 pg/mL | 72 pg/mL |  |  |
|  |  | CCCCc1nc2c(N)nc3ccccc3c2n1CC(C)(C)O | 1743 pg/mL | 73 pg/mL | 864 pg/mL | 181 pg/mL |  |  |
